In patent publication US20260226103A1, “MODIFIED AMINO ACIDS AND USES THEREOF” (priority 2022, published 2026):
Square brackets hold non-standard residues; d marks the D form. Peptide text beside a SMILES is read from it. * marks the point of attachment. X1 = O=C(O)c1cc(NC(=S)*)ccc1-c1c2ccc(=O)cc-2oc2cc(O)ccc12; aIle = CC[C@@H](C)[C@H](N)C(=O)O; dCit = NC(=O)NCCC[C@@H](N)C(=O)O; X2 = N=C(N)c1ccc(C(=O)*)cc1; Dap = NC[C@H](N)C(=O)O; Ahx = NCCCCCC(=O)O; βAla = NCCC(=O)O

Columns and labels:
U2OS cells = details: U2OS cell line
Protocol: (§2) HeLa and U2OS cells were maintained in medium consisting of Dulbecco's modified Eagle's medium (DMEM), 10% FBS, 1% L-Glutamine and 1% penicillin/streptomycin at pH 7.4. […] Cells were cultured in a humidified incubator at 37° C. with 5% CO2 atmosphere.
HeLa or U2OS cells were cultured in 24 well plates (4.5×10^5 cells per well) for 24 h. On the day of the experiment, the cells were incubated with 5 μM FITC-peptide in DMEM with 10% FBS at 37° C. or 4° C. for required time. The media was then removed and wells were washed with PBS (2×500 μL per well) and then detached from the plate with TrypLE Xpress (500 μL per well). PBS containing 2% bovine serum albumin (500 μL) was added to each well and cells transferred to 5 mL polystyrene FACS tubes. […]
(§3) Cells were finally analysed on a Thermo fisher Attune NxT flow cytometer with laser excitation/emission set at 490 nm/519 nm and a flow rate of 200 μL min^−1. Flow cytometry data was analysed using FlowJo software with gating set at a range of 51K-285K side scatter and 251K-815K for forward scatter variance for every sample. Median fluorescence intensity values were calculated from the gating range using FlowJo.
(§4) Median fluorescence values reported were normalised by subtracting average background fluorescence at 490 nm/519 nm of a set of untreated cells (ran with every experiment) from the value of each FITC labelled peptide.

HeLa cells [1] = assay: Cellular distribution by confocal microscopy; assay type: cell-based; details: 5 μM fluorescein-tagged CPP, 4 h
Protocol: HeLa cells were cultured in 8 well plates (Ibidi plates) (3.5×10^4 cells per well) for 24 h. […] After 3.5 h incubation, Hoescht 33258 was added at a concentration of 5.6 μM and cells incubated at 37° C. for the final 0.5 h. Cells were removed from the incubator and media removed. Each well was then washed with serum and phenol red free media (2×200 μL) then incubated with 4% formaldehyde in PBS (200 μL) for 20 min at room temperature. After incubation the 4% formaldehyde solution was removed and PBS (200 μL) added to each well. The cells were then imaged using a Leica S8 confocal microscope. Excitation/emission was set at 352 nm/461 nm for Hoescht 33258 imaging and 495 nm/519 nm for FITC labelled peptides. Images were processed using ImageJ software. Images were ‘rolling ball’ averaged across the set for each channel to remove background fluorescence.

HeLa cells [2] = assay: Cell uptake of FITC-peptides by flow cytometry; assay type: cell-based; details: for time of maximum uptake: 37° C., 1 hr vs 4 hr
Protocol: as §2
HeLa or U2OS cells were cultured in 24 well plates (4.5×10^5 cells per well) for 24 h. On the day of the experiment, the cells were incubated with 5 μM FITC-peptide in DMEM with 10% FBS at 37° C. or 4° C. for required time. The media was then removed and wells were washed with PBS (2×500 μL per well) and then detached from the plate with TrypLE Xpress (500 μL per well). PBS containing 2% bovine serum albumin (500 μL) was added to each well and cells transferred to 5 mL polystyrene FACS tubes. Cells were centrifuged (5 min, 5000 rpm) and washed with PBS containing 2% bovine serum albumin (2×500 μL) before being suspended in PBS containing 2% bovine serum albumin (1.00 mL per FACS tube).
as §3, §4

HeLa cells [3] = assay: Cell viability AlamarBlue assay; assay type: cell-based; details: for cytotoxicity / tolerability (in words): HeLa cells, at or up to 100 μM
Protocol: (§1) HeLa, U2OS or HepG2 cells were cultured in 96 well plates (2.6×10^3 cells per well) for 24 h. […] The experiments were performed in triplicate for each concentration. AlamarBlue® was then added to each well (0.5 mM, 10 μL, 10% v/v) and incubated for a further 6 h for HeLa and HepG2 cells and 24 h for U2OS cells. Cells were then analysed using a HIdex plate reader with laser excitation/emission set at 560 nm/595 nm. Fluorescence of untreated cells were used as a 100% viable control, with 1% Triton X used as a negative control, and viability of cells were calculated as a percentage of the control fluorescence values using OriginPro 2019b software.

[4] = Cell viability AlamarBlue assay; assay type: cell-based; details: human, HeLa cells, 24 h
Protocol: as §1

[5] = pH of 7.4; cited from earlier work

SMILES: CC[C@@H](C)[C@H](NC(=O)[C@H](CC(C)C)NC(=O)[C@@H]1CCCN1C(=O)CCCCCNC(=S)Nc1ccc(-c2c3ccc(=O)cc-3oc3cc(O)ccc23)c(C(=O)O)c1)C(=O)N[C@@H](Cc1ccc(O)cc1)C(=O)N[C@@H](CC(C)C)C(=O)N[C@@H](CNC(=O)c1ccc(C(=N)N)cc1)C(=O)N[C@@H](CC(C)C)C(=O)N[C@@H](CC(C)C)C(=O)N[C@@H](CNC(=O)c1ccc(C(=N)N)cc1)C(=O)NCC(N)=O [Am-TP-2, FITC-XPLIYLAmLLAmG] ({X1-Ahx}-PL[aIle]YL[Dap](X2)LL[Dap](X2)G-NH2)
- uptake trend (in words) (U2OS cells): enhanced uptake
- cellular distribution profile (in words) (HeLa cells [1]): cytoplasmic distribution profile
- decrease in cellular uptake at 4° C. relative to 37° C. (HeLa cells [2]): 30 fold
- uptake at 4 hr incubation relative to 1 hr (in words) (HeLa cells [2]): enhanced uptake
- increase in uptake relative to TP-2 (HeLa cells [2]; 5 μM FITC-peptide): 4 fold

SMILES: CC(C)C[C@H](NC(=O)[C@H](CC(C)C)NC(=O)[C@H](CCCNC(=N)N)NC(=O)[C@H](CCCNC(=N)N)NC(=O)[C@H](CC(C)C)NC(=O)[C@H](CC(C)C)NC(=O)[C@H](CCCNC(=N)N)NC(=O)CCCCCNC(=S)Nc1ccc(-c2c3ccc(=O)cc-3oc3cc(O)ccc23)c(C(=O)O)c1)C(=O)N[C@@H](CCCNC(=N)N)C(N)=O [Pep-2, FITC-XRLLRRLLR] (HELM PEPTIDE1{[O=C(O)c1cc(NC(=S)[*:2])ccc1-c1c2ccc(=O)cc-2oc2cc(O)ccc12].[O=C(CCCCCN[*:1])[*:2]].R.L.L.R.R.L.L.R.[am]}$$$$V2.0)
- cytotoxicity relative to Pep-1 (in words) (HeLa cells [3]; at 100 M (so in the source)): displaying cytotoxicity

SMILES: CC[C@H](C)[C@H](NC(=O)[C@H](CC(C)C)NC(=O)[C@H](Cc1ccccc1)NC(=O)[C@H](CCC(N)=O)NC(=O)[C@H](Cc1ccc(O)cc1)NC(=O)[C@H](CCCNC(=N)N)NC(=O)[C@H](CCCNC(=N)N)NC(=O)CCNC(=O)[C@H](CCCNC(=N)N)NC(=O)[C@H](CCCNC(=N)N)NC(=O)CCCCCNC(=O)[C@H](CCCNC(=N)N)NC(=O)CCCCCNC(=S)Nc1ccc(-c2c3ccc(=O)cc-3oc3cc(O)ccc23)c(C(=O)O)c1)C(=O)N[C@@H](CCCNC(=N)N)C(=O)NCCC(=O)N[C@@H](CCCNC(=N)N)C(=O)NCCCCCC(=O)N[C@@H](CCCNC(=N)N)C(N)=O [PiP6, FITC-XRXRRBRRYQFLIRBRXR] ({X1-Ahx}-R[Ahx]RR[βAla]RRYQFLIR[βAla]R[Ahx]R-NH2)
- viability at 24 h, 30 µM ([4]; 30 μM FITC-peptide): 15%
- viability at 24 h, 100 µM ([4]; 100 μM FITC-peptide): 5%
- cellular distribution profile (in words) (HeLa cells [1]): high level of accumulation within the nucleus
- time of maximum uptake (HeLa cells [2]; 5 μM FITC-peptide): 1 h

SMILES: CC[C@@H](C)[C@H](NC(=O)[C@H](CC(C)C)NC(=O)[C@@H]1CCCN1C(=O)CCCCCNC(=S)Nc1ccc(-c2c3ccc(=O)cc-3oc3cc(O)ccc23)c(C(=O)O)c1)C(=O)N[C@@H](CC(C)C)C(=O)N[C@@H](CC(C)C)C(=O)N[C@@H](CCCNC(=N)N)C(=O)N[C@@H](CC(C)C)C(=O)N[C@@H](CC(C)C)C(=O)N[C@@H](CCCNC(=N)N)C(=O)NCC(N)=O [TP-1, FITC-XPLILLRLLRG] ({X1-Ahx}-PL[aIle]LLRLLRG-NH2)
- cytotoxicity / tolerability (in words) (HeLa cells [3]): well tolerated
- cellular distribution profile (in words) (HeLa cells [1]): extensively distributed throughout the cytoplasm

SMILES: CC[C@@H](C)[C@H](NC(=O)[C@H](CC(C)C)NC(=O)[C@@H]1CCCN1C(=O)CCCCCNC(=S)Nc1ccc(-c2c3ccc(=O)cc-3oc3cc(O)ccc23)c(C(=O)O)c1)C(=O)N[C@@H](Cc1ccc(O)cc1)C(=O)N[C@@H](CC(C)C)C(=O)N[C@@H](CCCNC(=N)N)C(=O)N[C@@H](CC(C)C)C(=O)N[C@@H](CC(C)C)C(=O)N[C@@H](CCCNC(=N)N)C(=O)NCC(N)=O [TP-2, FITC-XPLIYLRLLRG] ({X1-Ahx}-PL[aIle]YLRLLRG-NH2)
- cytotoxicity / tolerability (in words) (HeLa cells [3]): well tolerated
- cellular distribution profile (in words) (HeLa cells [1]): extensively distributed throughout the cytoplasm

SMILES: CC[C@@H](C)[C@H](NC(=O)[C@H](CC(C)C)NC(=O)[C@@H]1CCCN1C(=O)CCCCCNC(=S)Nc1ccc(-c2c3ccc(=O)cc-3oc3cc(O)ccc23)c(C(=O)O)c1)C(=O)N[C@@H](Cc1ccc(O)cc1)C(=O)N[C@@H](CC(C)C)C(=O)N[C@H](CCCCN)C(=O)N[C@@H](CC(C)C)C(=O)N[C@@H](CC(C)C)C(=O)N[C@H](CCCCN)C(=O)NCC(N)=O [TP-3, FITC-XPLIYLKLLKG] ({X1-Ahx}-PL[aIle]YL[dK]LL[dK]G-NH2)
- cell uptake relative to TP-2 (in words) (HeLa cells [2]; 5 μM FITC-peptide): no difference in cell uptake

SMILES: CC[C@@H](C)[C@H](NC(=O)[C@H](CC(C)C)NC(=O)[C@@H]1CCCN1C(=O)CCCCCNC(=S)Nc1ccc(-c2c3ccc(=O)cc-3oc3cc(O)ccc23)c(C(=O)O)c1)C(=O)N[C@@H](Cc1ccc(O)cc1)C(=O)N[C@@H](CC(C)C)C(=O)N[C@H](CCCNC(N)=O)C(=O)N[C@@H](CC(C)C)C(=O)N[C@@H](CC(C)C)C(=O)N[C@H](CCCNC(N)=O)C(=O)NCC(N)=O [TP-4, FITC-XPLIYLCitLLCitG] ({X1-Ahx}-PL[aIle]YL[dCit]LL[dCit]G-NH2)
- cell uptake relative to TP-2 (in words) (HeLa cells [2]; 5 μM FITC-peptide): reduction in cellular uptake

SMILES: CC[C@@H](C)[C@H](NC(=O)[C@H](CC(C)C)NC(=O)[C@@H]1CCCN1C(=O)CCCCCNC(=S)Nc1ccc(-c2c3ccc(=O)cc-3oc3cc(O)ccc23)c(C(=O)O)c1)C(=O)N[C@@H](Cc1ccc(O)cc1)C(=O)N[C@@H](CC(C)C)C(=O)N[C@H](CCCNC(=N)N)C(=O)N[C@@H](CC(C)C)C(=O)N[C@@H](CC(C)C)C(=O)N[C@H](CCCNC(=N)N)C(=O)NCC(N)=O [TP-5, FITC-XPLIYLrLLrG] ({X1-Ahx}-PL[aIle]YL[dR]LL[dR]G-NH2)
- cell uptake relative to TP peptides containing L-Arg (TP-1 and TP-2) (in words) (HeLa cells [2]; 5 μM FITC-peptide): enhanced uptake
- cell uptake relative to TP-2 (in words) (HeLa cells [2]; 5 μM FITC-peptide): further reduction in uptake

SMILES: N=C(N)NCCC[C@H](NC(=O)[C@H](CCCNC(=N)N)NC(=O)[C@H](CCCNC(=N)N)NC(=O)[C@H](CCC(N)=O)NC(=O)[C@H](CCCNC(=N)N)NC(=O)[C@H](CCCNC(=N)N)NC(=O)[C@H](CCCCN)NC(=O)[C@H](CCCCN)NC(=O)[C@H](CCCNC(=N)N)NC(=O)CCCCCNC(=S)Nc1ccc(-c2c3ccc(=O)cc-3oc3cc(O)ccc23)c(C(=O)O)c1)C(N)=O [Tat, FITC-XRKKRRQRRR]
- cytotoxicity / tolerability (in words) (HeLa cells [3]): moderate levels of toxicity
- cellular distribution profile (in words) (HeLa cells [1]): accumulating in puncta
- time of maximum uptake (HeLa cells [2]; 5 μM FITC-peptide): 1 h

SMILES: N=C(N)NCCC[C@H](N)C(=O)O [arginine]
- Log D or c Log D [5]: approximately −3.5
